Laboratory results as given in patent publication US4385047A, “Antiallergic imidodisulfamides” (SmithKline Beckman Corporation, priority 1981, dated 1983).

Test system: partially purified slow reacting substance of anaphylaxis (SRS-A) obtained from guinea pig lung
Test: Inhibition of SRS-A induced contraction of guinea pig ileum
Conditions: compound concentration 5×10^-6 M, agonist SRS-A 40 μg/ml, 15 min, 5 µM
Procedure: The SRS-A antagonist activity of the compounds of this invention is measured by the ability of the active medicament to inhibit SRS-A induced contraction of guinea pig ileum. In this test system, sections of ileum are resected from guinea pigs and placed in 5 ml. tissue baths containing a modified Tyrode's solution. One end of the tissue is fixed to a glass tissue holder, the other is connected to a force-displacement transducer and the tissue is placed under a tension of 500 mg. Isometric tissue contractions are recorded on a six channel polygraph. Baths are constantly aerated with 95% O2 -5% CO2. After a 20 minute stabilization period a concentration of the appropriate agonist which provides a contraction height of 60-80% of the maximum obtainable to that agonist (as determined from full sequential concentration--response curves in separate experiments) is added to the tissue bath and the response recorded. The procedure is repeated until reproducible responses are obtained. […] Percent inhibition produced by the test compound is calculated by subtracting the mean percentage change in control tissue from the mean percentage change in tissues exposed to the test compound. Additional compounds are then evaluated as long as the tissue remains reproducibly responsive to the agonist. […]

SMILES: O=C(CS(=O)(=O)c1ccc2c(c1)CN(S(=O)(=O)NS(=O)(=O)N1CCc3ccc(S(=O)(=O)CC(=O)c4ccc(Cl)cc4)cc3C1)CC2)c1ccc(Cl)cc1 [Compound 1, N,N'-bis[7-(4-chlorobenzoylmethylsulfonyl)-1,2,3,4-tetrahydroisoquinolyl]disulfonylimide]
- percent antagonism of SRS-A induced contraction: 60%
